Experimental data: patent US20150209384A1, “ORAL PREPARATION FOR PROMOTING EXPRESSION OF TGF-BETA, ORAL PREPARATION FOR INHIBITING PRODUCTION OF PAIN-MEDIATING SUBSTANCE, AND ORAL PREPARATION FOR PREVENTING EDEMA” (KEWPIE CORPORATION, priority 2012, published 2015)

Key:
[1] = Measurement of concentration of hyaluronic acid in plasma; format: in vivo, rat
Procedure: (§1) Rats (Wistar (SPF), male, four-weeks-old at the time of purchase, purchased from Japan SLC, Inc.) were acclimatized and fed for 7 days, and then grouped based on their body weights on the day before administration. The above-mentioned test solution was administered by drinking ad libitum for 4 weeks. After the administration by drinking for 4 weeks, the rats were selected and grouped so that there was no difference in body weight between groups at the time of carrageenan induction (see Table 1), and then the rats were each used for a pain model to be described later.
(§2) The rat pain model under anesthesia with isoflurane (manufactured by Mylan Pharmaceuticals, Inc.) was subjected to abdominal section, and blood was collected through the caudal vena cava of the abdomen. A 5-mL disposable injection syringe filled with heparin sodium (Wako Pure Chemical Industries, Ltd.) and a 22-G injection needle were used for the blood collection. Plasma was rapidly separated from the collected blood using a centrifuge, dispensed into a tube, and cryopreserved until use.
The measurement of the concentration of hyaluronic acid in plasma was performed using “Hyaluronan Assay Kit (Seikagaku Biobusiness Corporation).”
The concentrations of hyaluronic acid in plasma of the negative control (distilled water-administered group) and the test solution-administered group were measured. The concentrations of hyaluronic acid in plasma were measured before carrageenan induction and 6 hours and 8 hours after carrageenan induction.

bradykinin = assay: Measurement of bradykinin in paw exudate (EIA), rat carrageenan model; format: in vivo; conditions: for total amount of bradykinin in exudate: vs negative control, FIG. 5
Procedure: as §1
(§3) A rat pain model was produced by subcutaneously injecting 0.1 mL of a 1% A-carrageenan (manufactured by SIGMA) solution into the plantar surface of the rat hind paw with reference to methods of Ohuchi et al. (Kazuo Ohuchi, “Seibutsu Yakkagaku Jikken Koza (Biological pharmaceutical science experimental course) (Vol. 12) Inflammation and Allergy I-1”, Chapter 1, foreign matter-induced inflammation model: pp. 30-51) and Masahiro Noguchi et al. (Masahiro Noguchi, et al: Enzymologic and pharmacologic profile of loxoprofen sodium and its metabolites. Biol. Pharm. Bull. 2005.28.2075-2079). It should be noted that the 1% λ-carrageenan solution was stirred with a stirrer until immediately before use (induction). After that, a paw volume was measured using a paw volume measuring apparatus. In addition, blood was collected from the rat pain model under isoflurane anesthesia. After that, an exudate was collected from the hind paw, and the measurement of PGE2 and bradykinin in the exudate was performed.
(§4) A 15-mL centrifugation tube, which had been measured for its tare weight in advance, was prepared, and a container having a 2-mL pipette tip cut at the tip in the centrifugation tube was prepared. The induced paw of the animal after the end of the blood collection was amputated from 1 cm above the malleolus using bone scissors or the like, and measured for its weight. The skin at the plantar site of the rat was deeply incised using a scalpel to make 2 incisions in a length direction by 4 incisions in a width direction which is perpendicular to the length direction. This paw skin tissue was placed with the toe down into the above-mentioned container, and cooling centrifugation was performed using a centrifugation machine at 3,000 rpm for 15 minutes to collect an exudate. In addition, in a non-treated group, the collection was performed from the left and right hind paws. The mass of the collected exudate was measured using an electrobalance. To the exudate after the end of the mass measurement were added 100 μL of 20 mM aspirin-containing physiological saline and 250 μL of 20 unit/mL heparin-containing physiological saline, the resultant was centrifuged, and then the supernatant was used as an exudate sample. In addition, the exudate was dispensed into a tube. The exudate sample was frozen with liquid nitrogen and cryopreserved until use.
The measurement of bradykinin in the exudate was performed using “Bradykinin, EIA Kit, High Sensitivity, Bachem Americans.” The operations were performed in conformity with the accompanying protocol of the kit.

TGF-β1 = assay: Measurement of TGF-β1 in plasma (ELISA), rat carrageenan model; format: in vivo; conditions: 6 hours after carrageenan induction, FIG. 4
Procedure: as §1
A rat pain model was produced by subcutaneously injecting 0.1 mL of a 1% A-carrageenan (manufactured by SIGMA) solution into the plantar surface of the rat hind paw with reference to methods of Ohuchi et al. (Kazuo Ohuchi, “Seibutsu Yakkagaku Jikken Koza (Biological pharmaceutical science experimental course) (Vol. 12) Inflammation and Allergy I-1”, Chapter 1, foreign matter-induced inflammation model: pp. 30-51) and Masahiro Noguchi et al. (Masahiro Noguchi, et al: Enzymologic and pharmacologic profile of loxoprofen sodium and its metabolites. Biol. Pharm. Bull. 2005.28.2075-2079). It should be noted that the 1% λ-carrageenan solution was stirred with a stirrer until immediately before use (induction). After that, a paw volume was measured using a paw volume measuring apparatus. […]

PGE2 = assay: Measurement of PGE2 in paw exudate (ELISA), rat carrageenan model; format: in vivo; conditions: vs negative control; for total amount of PGE2 in exudate: FIG. 7; for concentration of PGE2 in exudate: FIG. 8
Procedure: as §1, §3, §4
The measurement of PGE2 (ELISA) in the exudate was performed using “Prostaglandin E2 Kit-Monoclonal, ACE.” The operations were performed in conformity with the accompanying protocol of the kit.

IL-10 = assay: Measurement of IL-10 in plasma, rat carrageenan model; format: in vivo; conditions: oral hyaluronic acid 200 mg/kg/day 4 weeks
Procedure: as §1, §2
The measurement of IL-10 in plasma was performed using “Quantikine Rat IL-10 (R & D Systems, Inc.).” The operations were performed in conformity with the accompanying protocol of the kit.

[2] = tested on: rat carrageenan-induced inflammatory pain model; assay: Rat carrageenan-induced inflammatory pain model: paw edema, paw volume, exudate amount; format: in vivo; conditions: for paw edema: vs negative control (distilled water), hyaluronic acid 200 mg/kg/day by drinking for 4 weeks, ibuprofen 100 mg/kg oral 1 hour before induction, FIG. 1; for exudate amount of the paw: FIG. 3
Procedure: Rats (Wistar (SPF), male, four-weeks-old at the time of purchase, purchased from Japan SLC, Inc.) were acclimatized and fed for 7 days, and then grouped based on their body weights on the day before administration. The above-mentioned test solution was administered by drinking ad libitum for 4 weeks.
It should be noted that the 1% λ-carrageenan solution was stirred with a stirrer until immediately before use (induction). After that, a paw volume was measured using a paw volume measuring apparatus. In addition, blood was collected from the rat pain model under isoflurane anesthesia. After that, an exudate was collected from the hind paw, and the measurement of PGE2 and bradykinin in the exudate was performed.
The tuberal region of the pisiform bone outside the rat right hind paw was marked with marking ink so that volume measurement was uniform. Distilled water was charged up to a target water surface of a measuring chamber of the paw volume measuring apparatus. A measurer restrained the rat, and while lightly pressing the femoral region of the paw to be measured, put the paw at a position at which the mark leveled off and reached the target water surface. Then, a paw volume was recorded using a foot switch connected to the apparatus. It should be noted that the measurement of the paw volume was performed three times for each animal individual, and a mean thereof was determined.
Regarding a measured value for the paw volume, an amount of change Δ mL was determined from the following calculation equation for each individual animal, and a group mean and its standard error (SE) were calculated.
Amount of change A mL=Value at the time of each measurement after carrageenan administration−Value before (0 hours after) carrageenan administration
as §4

[3] = tested on: TGF-β1 mRNA in human colon adenocarcinoma-derived HT29 cells; assay: TGF-β expression promoting action in HT29 cells (TGF-β1 mRNA, real-time PCR); format: cell-based; conditions: hyaluronic acid 0.01 mg/ml, LPS 200 ng/mL added 1 hour later, 24 hours after addition of hyaluronic acid, control = 1, FIG. 11
Procedure: In order to confirm the TGF-β expression promoting action of hyaluronic acid in human colon adenocarcinoma-derived HT29 cells (purchased from DS Pharma Biomedical Co., Ltd.), the measurement of the production amount of TGF-β mRNA in the case of treating HT29 cells with hyaluronic acid was performed by the following method.
Hyaluronic acid was added to a culture supernatant, and 1 hour after that, a lipopolysaccharide (LPS) was added at a concentration of 200 ng/mL. 23 hours after that, mRNA of cells was collected, and the determination of TGF-β1 mRNA using real-time PCR equipment (Mx 3005, Agilent Technologies) was performed. First, cDNA was synthesized from mRNA by reverse transcription, and a PCR reaction was performed using the cDNA. That is, an amplification reaction involving repeating thermal denaturation (95° C., 10 seconds) and annealing (60° C., 20 seconds) 40 times was performed, and simultaneously, DNA amplification was measured by monitoring fluorescence from CybrGreen to be conjugated with DNA, and determination in the case of defining the mRNA amount of a control as 1 was performed. The human TGF-31 primers used were designed with the software Primer BLAST made available to the public by the National Center for Biotechnology Information (NCBI). Their sequences are 5′-[…]-3′ (Forward) and 5′-[…]-3′ (Reverse). […]

[4] = 6 hours after carrageenan induction, vs negative control (distilled water), FIG. 6
[5] = 6 hours after carrageenan induction
[6] = 6 hours after carrageenan induction, vs negative control, hyaluronic acid 200 mg/kg/day 4 weeks, ibuprofen 100 mg/kg oral
[7] = 3 hours after carrageenan induction

| Compound | concentration of hyaluronic acid in plasma ([1]; 6 hours after carrageenan induction, FIG. 9) | concentration of hyaluronic acid in plasma ([1]; 8 hours after carrageenan induction, FIG. 9) | concentration of hyaluronic acid in plasma ([1]; before carrageenan induction, after continuous ingestion for 4 weeks (200 mg/kg/day), FIG. 9 left panel) | concentration of bradykinin in exudate (bradykinin; 3 hours after carrageenan induction, vs distilled water group, FIG. 6) | concentration of bradykinin in exudate compared to positive control (ibuprofen) (bradykinin; 3 hours and 6 hours after carrageenan induction, FIG. 6) | concentration of bradykinin in exudate (bradykinin; [4]) | total amount of bradykinin in exudate (bradykinin; [5]) | concentration of TGF-β in plasma compared to positive control (ibuprofen) (TGF-β1; same timing) | concentration of TGF-β in plasma (TGF-β1; hyaluronic acid 200 mg/kg/day 4 weeks) | total amount of PGE2 in exudate (PGE2; [5]) | concentration of PGE2 in exudate (PGE2; [5]) | increase in IL-10 in plasma (IL-10) | paw edema [2, 5] | paw volume ([2]; 6 hours after carrageenan induction, vs negative control, hyaluronic acid 200 mg/kg/day 4 weeks, ibuprofen 100 mg/kg oral, FIG. 2) | exudate amount of the paw [2, 6] | total amount of bradykinin in exudate (bradykinin; [7]) | total amount of PGE2 in exudate (PGE2; [7]) | concentration of PGE2 in exudate (PGE2; [7]) | exudate amount of the paw ([2]; 3 hours after carrageenan induction, vs negative control, ibuprofen 100 mg/kg oral) | amount of TGF-β1 mRNA relative to control (no addition of hyaluronic acid) [3] [times] |
| --- | --- | --- | --- | --- | --- | --- | --- | --- | --- | --- | --- | --- | --- | --- | --- | --- | --- | --- | --- | --- |
| hyaluronic acid [listing 1 of 2 here] | almost no change | almost no change | did not cause any change | significantly smaller than those in the distilled water group | lower than those in the positive control | significantly smaller than those in the distilled water group | significantly smaller than that in the negative control | higher than the concentration of TGF-β in the positive control | increased remarkably | significantly smaller than that in the negative control | significantly smaller than that in the negative control | not observed | milder than in the negative control | significantly smaller than that in the negative control | smaller than that in the negative control | – | – | – | – | – |
| CC(C)Cc1ccc(C(C)C(=O)O)cc1 (centres unmarked) [ibuprofen, reference compound] | – | – | – | – | – | significantly smaller concentration of bradykinin than that in the negative control | smaller than those in the negative control (statistically significant 6 hours after carrageenan induction) | – | – | smaller than those in the negative control (statistically significant 6 hours after carrageenan induction) | significantly smaller than those in the negative control | – | milder than in the negative control | – | significantly smaller than those in the negative control | smaller than those in the negative control | smaller than those in the negative control | significantly smaller than those in the negative control | significantly smaller than those in the negative control | – |
| hyaluronic acid [listing 2 of 2 here] | – | – | – | – | – | – | – | – | – | – | – | – | – | – | – | – | – | – | – | 2.14 |
